Test results reported in the supplement of paper PMC10307832.

Key:
Experiment in all cases: relative viability (nuclei count vs DMSO), 5 days (fraction); higher = more cells survive
[1] = compound: CC1=CC(=CC=C1)NC2=NC(=CS2)C3=CC=NC=C3 + CS(=O)(=O)N1CCN(Cc2cc3nc(-c4cccc5[nH]ncc45)nc(N4CCOCC4)c3s2)CC1 [Pictilisib] (partner 1 µM)
Procedure, shortened: (§1)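 For relative viability, nuclei counts in treated wells were divided by those in vehicle wells. Lung cancer cell lines had been pin-tool dosed in 1536-well plates the day after seeding and cultured for 5 days, then fixed and stained in one step (final 0.05% Triton X-100, 1% formaldehyde, 1 ug/ml Hoechst) and imaged at 4×. Doses were one drug alone or a fixed anchor-drug dose plus five library-drug doses (not always all listed) in √10 steps, and values are duplicate-plate medians.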

[2] = compound: CC1=CC(=CC=C1)NC2=NC(=CS2)C3=CC=NC=C3 + C[C@@H](Oc1cc(-c2cnn(C3CCNCC3)c2)cnc1N)c1c(Cl)ccc(F)c1Cl [Crizotinib] (partner 1 µM)
Procedure, shortened: as §1

Masitinib + Trametinib = compound: Cc1ccc(NC(=O)c2ccc(CN3CCN(C)CC3)cc2)cc1Nc1nc(-c2cccnc2)cs1 [Masitinib] + CC(=O)Nc1cccc(-n2c(=O)n(C3CC3)c(=O)c3c(Nc4ccc(I)cc4F)n(C)c(=O)c(C)c32)c1 [Trametinib] (partner 0.02 µM)
Procedure, shortened: as §1

Masitinib + Bortezomib = compound: Cc1ccc(NC(=O)c2ccc(CN3CCN(C)CC3)cc2)cc1Nc1nc(-c2cccnc2)cs1 [Masitinib] + CC(C)C[C@H](NC(=O)[C@H](Cc1ccccc1)NC(=O)c1cnccn1)B(O)O [Bortezomib] (partner 0.002 µM)
Procedure, shortened: as §1

UMC-11
relative viability ([1]; first compound 0.08 µM): 0.757
relative viability ([1]; first compound 0.253 µM): 0.746
relative viability ([1]; first compound 0.8 µM): 0.729
relative viability ([1]; first compound 2.53 µM): 0.761
relative viability ([1]; first compound 8 µM): 0.824
relative viability ([2]; first compound 0.08 µM): 0.602
relative viability ([2]; first compound 0.253 µM): 0.582
relative viability ([2]; first compound 0.8 µM): 0.544
relative viability ([2]; first compound 2.53 µM): 0.579
relative viability ([2]; first compound 8 µM): 0.72
relative viability (Masitinib + Trametinib; first compound 0.01 µM): 0.431
relative viability (Masitinib + Trametinib; first compound 0.03162 µM): 0.588
relative viability (Masitinib + Trametinib; first compound 0.1 µM): 0.617
relative viability (Masitinib + Trametinib; first compound 0.3162 µM): 0.627
relative viability (Masitinib + Trametinib; first compound 1 µM): 0.804
relative viability (Masitinib + Bortezomib; first compound 0.01 µM): 0.793
relative viability (Masitinib + Bortezomib; first compound 0.03162 µM): 0.743
relative viability (Masitinib + Bortezomib; first compound 0.1 µM): 0.79
relative viability (Masitinib + Bortezomib; first compound 0.3162 µM): 1.03
relative viability (Masitinib + Bortezomib; first compound 1 µM): 0.714
